Patent publication US20170129919A1, “CYCLIC DIPEPTIDE-CONTAINING COMPOSITION” (Suntory Holdings Limited, priority 2014, published 2017)
≈ marks a conversion by molar mass, not a printed value. Like-named read-outs stand apart in the source and are kept apart here.

Legend:
hyperuricemic mice = experiment: Action of lowering serum uric acid levels for hyperuricemic mice (potassium oxonate model); format: in vivo, BALBc mice; details: 1 mg/kg orally; FIG. 2
Description: As to the animals used, male 7-week old BALBc mice were purchased from CLEA Japan, Inc., and subjected to an experiment after a one-week period of conditioning. The animals were bred in a breeding room with air-conditioning facilities (temperature: 23.5°±1.0° C., humidity: 55±10 RH %, the number of ventilation: 12 to 15 times/hour, illuminated: from 7:00 to 19:00 each day). During the period of conditioning, the mice were allowed to take a commercially available feed (CE-2, manufactured by CLEA Japan, Inc.) and distilled water ad libitum.
Oxonic acid is a substance that raises a blood uric acid level by inhibiting a urikase, a metabolic enzyme for uric acid. In view of the above, potassium oxonate (PO) was administered, thereby generating hyperuricemic model animals (see, Planta Med 2009; 75:302-306). Studies were made on the following 6 groups:
In all the groups that include PO administration, PO previously suspended in a 0.5% aqueous CMC-Na solution at 250 mg/kg was administered, and Normal Group was administered with a 0.5% aqueous CMC-Na solution, each being administered intraperitoneally. […] After 2 hours from the administration with PO, the blood was collected from the abdominal vena cava under anesthesia. After blood removal, the liver was harvested. The collected blood was allowed to stand at room temperature for 45 minutes, and centrifuged at 8,000 rpm for 10 minutes to recover sera. Here, the sera and the liver were preserved at −80° C. until the measurements were carried out.
The serum uric acid level was measured using 7180 Clinical Analyzer (manufactured by Hitachi Technologies).
The actions of lowering serum uric acid levels of soybean peptide heat-treated products were studied using hyperuricemic model animals, in the same manner as in Test Example 2. Concretely, the animals used were furnished in the same manner as in Test Example 2, and studies were made on the following 5 groups.
For each of the above-mentioned groups, the administration and the blood collection were carried out in the same manner as in Test Example 2 to measure a serum uric acid level. […]
Here, the heat-treated product of the soybean peptide obtained by dissolving a soybean peptide (Hinute AM, manufactured by FUJI OIL, CO., LTD.) in distilled water in a concentration of 200 mg/mL, heating to 132° C. for 3 hours, and lyophilizing the heated mixture was used. The content of the cyclic dipeptide of the soybean peptide heat-treated product was measured according to LC-MS/MS under the following conditions. […]

xanthine oxidase (XO) = experiment: In vitro xanthine oxidase (XO) inhibiting action; format: biochemical; details: for IC50: PBS pH 7.5, xanthine substrate, absorbance at 295 nm after 30 minutes, mean±standard error; for Inhibition Rate (%) at Concentration of 100 μM: Table 2, XO inhibition at 100 μM; for action of inhibiting a xanthine oxidase (in words): summary of Tables 1 to 3
Description: The in vitro xanthine oxidase (XO) inhibiting action was studied on 210 kinds of cyclic dipeptides, linear dipeptides Tyr-Gly and Gly-Tyr, and an amino acid Tyr. […] Thereafter, 20 μL of a 250 μM xanthine solution previously dissolved in the PBS was added thereto, and the absorbance after 30 minutes was measured using a spectrophotometer (Synegy HT, manufactured by Bio Tek). The XO inhibition rate (%) at each concentration was calculated by the following calculation formula, to obtain activities of inhibiting XO (IC50 values).

Solubility in water = format: physicochemical; details: Table 5; for Solubility in Water: distilled water, 25° C., ultrasonication 30 minutes, visual examination, tested at 5, 1, 0.1, 0.01 mM, insoluble = not dissolved at 0.01 mM
Description: Concretely, each compound was added to distilled water (manufactured by Otsuka Pharmaceutical Co., Ltd.) at an ambient temperature (25° C.) so as to have a final concentration of 5 mM, and the mixture was stirred under ultrasonication for 30 minutes to dissolve. […] However, none of the compounds dissolved, so that distilled water was further added thereto so as to have a final concentration of 0.01 mM, and the mixture was stirred under ultrasonication for 30 minutes, but still no compounds dissolved.

[1] = Table 3, read-out: IC50 (Activity of Inhibiting XO of Phe-Containing Cyclic Dipeptides)
[2] = Table 1, read-out: IC50 (Activity of Inhibiting XO of Tyr-Containing Cyclic Dipeptides)

Compound: Oc1ncnc2[nH]ncc12 [Allopurinol, reference compound]
- serum uric acid level vs PO Group (hyperuricemic mice): significant difference in effects on the PO Group

Compound: CC1NC(=O)C(Cc2ccccc2)NC1=O (centres unmarked) [Cyclo(Ala-Phe), reference compound]
- IC50 (xanthine oxidase (XO); [1]): > 100 µM

Compound: CC1NC(=O)C(Cc2ccc(O)cc2)NC1=O (centres unmarked) [Cyclo(Ala-Tyr), cycloalanyltyrosine]
- Inhibition Rate (%) at Concentration of 100 μM (xanthine oxidase (XO)): 8.3%
- Solubility in Water (Solubility in water): insoluble

Compound: N=C(N)NCCCC1NC(=O)C(Cc2ccccc2)NC1=O (centres unmarked) [Cyclo(Arg-Phe), reference compound]
- IC50 (xanthine oxidase (XO); [1]): > 300 µM

Compound: N=C(N)NCCCC1NC(=O)C(Cc2ccc(O)cc2)NC1=O (centres unmarked) [Cyclo(Arg-Tyr), cycloarginyltyrosine]
- IC50 (xanthine oxidase (XO); [2]): 211 µM
- solubility in water (in words) (Solubility in water): high solubility in water
- Solubility in Water (Solubility in water): 5000 µM (≈ 1600 µg/mL)

Compound: NC(=O)CC1NC(=O)C(Cc2ccccc2)NC1=O (centres unmarked) [Cyclo(Asn-Phe), reference compound]
- IC50 (xanthine oxidase (XO); [1]): > 300 µM

Compound: NC(=O)C[C@@H]1NC(=O)[C@H](Cc2ccc(O)cc2)NC1=O [Cyclo(Asn-Tyr), cycloasparaginyltyrosine]
- IC50 (xanthine oxidase (XO); [2]): 113 µM
- solubility in water (in words) (Solubility in water): high solubility in water
- Solubility in Water (Solubility in water): 1000 µM (≈ 277 µg/mL)

Compound: O=C(O)CC1NC(=O)C(Cc2ccccc2)NC1=O (centres unmarked) [Cyclo(Asp-Phe), reference compound]
- IC50 (xanthine oxidase (XO); [1]): > 300 µM

Compound: O=C(O)C[C@@H]1NC(=O)[C@H](Cc2ccc(O)cc2)NC1=O [Cyclo(Asp-Tyr), cycloaspartyltyrosine]
- IC50 (xanthine oxidase (XO); [2]): 172 µM
- solubility in water (in words) (Solubility in water): high solubility in water
- Solubility in Water (Solubility in water): 5000 µM (≈ 1390 µg/mL)

Compound: NC(=O)CCC1NC(=O)C(Cc2ccccc2)NC1=O (centres unmarked) [Cyclo(Gln-Phe), reference compound]
- IC50 (xanthine oxidase (XO); [1]): > 300 µM

Compound: NC(=O)CC[C@@H]1NC(=O)[C@H](Cc2ccc(O)cc2)NC1=O [Cyclo(Gln-Tyr), cycloglutaminyltyrosine]
- Inhibition Rate (%) at Concentration of 100 μM (xanthine oxidase (XO)): 42.6%
- solubility in water (in words) (Solubility in water): high solubility in water
- Solubility in Water (Solubility in water): 1000 µM (≈ 291 µg/mL)

Compound: O=C(O)CCC1NC(=O)C(Cc2ccccc2)NC1=O (centres unmarked) [Cyclo(Glu-Phe), reference compound]
- IC50 (xanthine oxidase (XO); [1]): > 100 µM

Compound: O=C(O)CC[C@@H]1NC(=O)[C@H](Cc2ccc(O)cc2)NC1=O [Cyclo(Glu-Tyr), cycloglutamyltyrosine]
- Inhibition Rate (%) at Concentration of 100 μM (xanthine oxidase (XO)): 0.4%
- solubility in water (in words) (Solubility in water): high solubility in water
- Solubility in Water (Solubility in water): 5000 µM (≈ 1460 µg/mL)

Compound: O=C1NC(Cc2cnc[nH]2)C(=O)NC1Cc1ccccc1 (centres unmarked) [Cyclo(His-Phe), reference compound]
- IC50 (xanthine oxidase (XO); [1]): > 100 µM

Compound: O=C1N[C@@H](Cc2c[nH]cn2)C(=O)N[C@H]1Cc1ccc(O)cc1 [Cyclo(His-Tyr), cyclohistidyltyrosine]
- Inhibition Rate (%) at Concentration of 100 μM (xanthine oxidase (XO)): 3.2%
- solubility in water (in words) (Solubility in water): high solubility in water
- Solubility in Water (Solubility in water): 1000 µM (≈ 300 µg/mL)

Compound: CCC(C)C1NC(=O)C(Cc2ccccc2)NC1=O (centres unmarked) [Cyclo(Ile-Phe), reference compound]
- IC50 (xanthine oxidase (XO); [1]): > 100 µM

Compound: CCC(C)C1NC(=O)C(Cc2ccc(O)cc2)NC1=O (centres unmarked) [Cyclo(Ile-Tyr), cycloisoleucyltyrosine]
- IC50 (xanthine oxidase (XO); [2]): 86.7 ± 2.8 µM
- solubility in water (in words) (Solubility in water): high solubility in water
- Solubility in Water (Solubility in water): 1000 µM (≈ 276 µg/mL)

Compound: CC(C)CC1NC(=O)C(Cc2ccccc2)NC1=O (centres unmarked) [Cyclo(Leu-Phe), reference compound]
- IC50 (xanthine oxidase (XO); [1]): > 100 µM

Compound: NCCCCC1NC(=O)C(Cc2ccccc2)NC1=O (centres unmarked) [Cyclo(Lys-Phe), reference compound]
- IC50 (xanthine oxidase (XO); [1]): > 300 µM

Compound: NCCCC[C@@H]1NC(=O)[C@H](Cc2ccc(O)cc2)NC1=O [Cyclo(Lys-Tyr), cyclolysyltyrosine]
- Inhibition Rate (%) at Concentration of 100 μM (xanthine oxidase (XO)): 25.7%
- solubility in water (in words) (Solubility in water): high solubility in water
- Solubility in Water (Solubility in water): 5000 µM (≈ 1460 µg/mL)

Compound: CSCCC1NC(=O)C(Cc2ccccc2)NC1=O (centres unmarked) [Cyclo(Met-Phe), reference compound]
- IC50 (xanthine oxidase (XO); [1]): > 100 µM

Compound: CSCCC1NC(=O)C(Cc2ccc(O)cc2)NC1=O (centres unmarked) [Cyclo(Met-Tyr), cyclomethionyltyrosine]
- IC50 (xanthine oxidase (XO); [2]): 56.4 ± 2.9 µM
- solubility in water (in words) (Solubility in water): high solubility in water
- Solubility in Water (Solubility in water): 5000 µM (≈ 1470 µg/mL)

Compound: O=C1NC(Cc2ccccc2)C(=O)NC1CS (centres unmarked) [Cyclo(Phe-Cys), reference compound]
- IC50 (xanthine oxidase (XO); [1]): 133 ± 25.2 µM

Compound: O=C1CNC(=O)C(Cc2ccccc2)N1 (centres unmarked) [Cyclo(Phe-Gly), reference compound]
- IC50 (xanthine oxidase (XO); [1]): > 100 µM

Compound: O=C1NC(Cc2ccccc2)C(=O)NC1Cc1ccccc1 (centres unmarked) [Cyclo(Phe-Phe), reference compound]
- IC50 (xanthine oxidase (XO); [1]): > 100 µM

Compound: O=C1N[C@@H](Cc2ccc(O)cc2)C(=O)N[C@H]1Cc1ccccc1 [Cyclo(Phe-Tyr), cyclophenylalanyltyrosine]
- IC50 (xanthine oxidase (XO); [2]): 22.2 ± 0.8 µM
- IC50 (xanthine oxidase (XO); [1]): 22.2 ± 0.8 µM
- action of inhibiting a xanthine oxidase (in words) (xanthine oxidase (XO)): high action of inhibiting a xanthine oxidase
- Solubility in Water (Solubility in water): insoluble

Compound: O=C1NC(Cc2ccccc2)C(=O)N2CCCC12 (centres unmarked) [Cyclo(Pro-Phe), reference compound]
- IC50 (xanthine oxidase (XO); [1]): > 100 µM

Compound: O=C1N[C@@H](Cc2ccc(O)cc2)C(=O)N2CCC[C@@H]12 [Cyclo(Pro-Tyr), cycloprolyltyrosine]
- Inhibition Rate (%) at Concentration of 100 μM (xanthine oxidase (XO)): 2.3%
- solubility in water (in words) (Solubility in water): high solubility in water
- Solubility in Water (Solubility in water): 1000 µM (≈ 260 µg/mL)

Compound: O=C1NC(Cc2ccccc2)C(=O)NC1CO (centres unmarked) [Cyclo(Ser-Phe), reference compound]
- IC50 (xanthine oxidase (XO); [1]): > 300 µM

Compound: O=C1NC(Cc2ccc(O)cc2)C(=O)NC1CO (centres unmarked) [Cyclo(Ser-Tyr), cycloseryltyrosine]
- IC50 (xanthine oxidase (XO); [2]): 189 ± 52.5 µM
- Solubility in Water (Solubility in water): insoluble

Compound: CC(O)C1NC(=O)C(Cc2ccccc2)NC1=O (centres unmarked) [Cyclo(Thr-Phe), reference compound]
- IC50 (xanthine oxidase (XO); [1]): > 300 µM

Compound: C[C@@H](O)[C@@H]1NC(=O)[C@H](Cc2ccc(O)cc2)NC1=O [Cyclo(Thr-Tyr), cyclothreonyltyrosine]
- Inhibition Rate (%) at Concentration of 100 μM (xanthine oxidase (XO)): 2.6%
- solubility in water (in words) (Solubility in water): high solubility in water
- Solubility in Water (Solubility in water): 1000 µM (≈ 264 µg/mL)

Compound: O=C1NC(Cc2c[nH]c3ccccc23)C(=O)NC1Cc1ccccc1 (centres unmarked) [Cyclo(Trp-Phe), reference compound]
- IC50 (xanthine oxidase (XO); [1]): > 100 µM

Compound: O=C1N[C@@H](Cc2ccc(O)cc2)C(=O)N[C@H]1Cc1ccc(O)cc1 [Cyclo(Tyr-Tyr), cyclotyrosyltyrosine]
- IC50 (xanthine oxidase (XO); [2]): 29.5 ± 2.9 µM
- action of inhibiting a xanthine oxidase (in words) (xanthine oxidase (XO)): high action of inhibiting a xanthine oxidase
- Solubility in Water (Solubility in water): insoluble

Compound: CC(C)C1NC(=O)C(Cc2ccccc2)NC1=O (centres unmarked) [Cyclo(Val-Phe), reference compound]
- IC50 (xanthine oxidase (XO); [1]): 60.5 ± 2.4 µM

Compound: CC(C)C1NC(=O)C(Cc2ccc(O)cc2)NC1=O (centres unmarked) [Cyclo(Val-Tyr), cyclovalyltyrosine]
- IC50 (xanthine oxidase (XO); [2]): 79.4 ± 16.1 µM
- Solubility in Water (Solubility in water): insoluble

Compound: cycloleucyltyrosine [Cyclo(Leu-Tyr)]
- IC50 (xanthine oxidase (XO); [2]): 23.8 ± 5.3 µM
- action of inhibiting a xanthine oxidase (in words) (xanthine oxidase (XO)): high action of inhibiting a xanthine oxidase
- Solubility in Water (Solubility in water): insoluble

Compound: cyclotryptophanyltyrosine [Cyclo(Trp-Tyr)]
- Inhibition Rate (%) at Concentration of 100 μM (xanthine oxidase (XO)): 19.1%
- Solubility in Water (Solubility in water): insoluble
